Where two headings read alike, the source gives them in different places. Values belong to the compound of their own block, whether it stands above or below them.
Columns and labels:
[1] = In vitro metabolism in human lung precision-cut tissue slices, HPLC with UV detection; type: in vitro ADME; details: for Share of BDP-related material in tissue / Share of BDP-related material in medium: incubation of BDP 25 μM; for Share of BDP-related material in tissue: lung tissue extract; for Total amount in human lung tissue slices: Parent compound / Relative drug amount in human lung tissue slices: Parent compound: tissue extract; for Total amount in human lung tissue slices: Parent compound / Relative drug amount in human lung tissue slices: Parent compound / Relative drug amount in medium: Parent compound: mean ± SD n = 9; for Metabolites detected in incubation medium: incubation medium, 2, 6 and 24 h; for Relative drug amount in medium: Parent compound: incubation medium, initial 25 μM
Description: Lung slices were prepared at Vitron, Inc. (Tucson, AZ, USA) as previously described. In brief, the lungs were inflated with 2 to 4 L of 0.5% agar/Waymouth's medium mixture at 37°C and were stored at 4°C for 30 to 60 min. Each lung was cut into 2 cm thick slabs, placed on dental wax, and tissue cylinders of 8 mm diameter were prepared using a cordless coring tool. 400 μm thick slices were cut from the cylinders using a Brendel-Vitron tissue slicer.
Three lung slices from each donor were floated onto titanium roller inserts, blotted, and loaded horizontally into glass scintillation vials containing 1.7 mL of Waymouth's MB752/1 tissue culture medium fortified with 10% fetal calf serum, 0.35 g/L L-glutamine, 10 mL/L Fungi-Bact, and 84 μg/mL gentamicin sulfate.
Three vials were used per substrate and time point. A stock solution of the substrate was added prior to dispensing the media into vials. The final substrate concentration was 25 μM. The vials were closed with caps that had central 2-mm holes, placed in a Dynamic Organ Culture incubator (Vitron, Inc., Tucson, AZ, USA) at 37°C, and exposed to 95% O2 and 5% CO2. The human tissue slices were incubated for 2, 6, and 24 h, and cellular viability of human lung slices was assessed using separate incubation samples (see assessment of cellular viability). Slices and media from each vial were harvested separately into separate tubes and stored at -80°C. Metabolism samples containing either tissue or media were shipped on dry ice from Vitron, Inc. to ALTANA Pharma AG for analysis.
The volume of medium was measured at the end of the incubation period. Samples of the incubation medium were prepared by mixing 60 μL of medium with 60 μL of solution for precipitation (0.2 M ZnSO4/ACN, 1:1). Following centrifugation for 5 min (1,000 × g Model5414, Eppendorf) at room temperature, the supernatant was assayed by high performance liquid chromatography (HPLC). Tissue samples were homogenized in 1 mL of methanol using ultrasonic treatment (Branson Sonifier 250; Branson Ultrasonics Corporation, Danbury, Conn) and were centrifuged for 5 min (1,000 × g Model5414, Eppendorf) at room temperature. After centrifugation, 333 μL of the supernatant was dried under a gentle stream of nitrogen at 45°C and resuspended in 75 μL of methanol before analysis.
HPLC analysis was performed using a Hewlett-Packard HP1090 liquid chromatograph (Agilent Technologies Deutschland GmbH, Waldbronn, Germany) with an ultraviolet (UV) detector monitoring at 242 nm. Separation was achieved using a Hypersil MOS column (125 × 4 mm, 5 μm) (Thermo Electron Corp., Dreieich, Germany). A water/ethanol gradient system was run from 30 to 90% ethanol in 10 min followed by an isocratic phase (6 min) with 90% ethanol at a flow rate of 0.75 mL/min. 25 μL of the tissue extract or 100 μL of the supernatant of the medium were injected onto the column.

[2] = cited from earlier work
glucocorticoid receptor = details: in words, compared with des-CIC and BMP; cited from earlier work
[3] = design: method as in earlier work; details: cited from earlier work
[4] = design: method as in PMID 16566061; details: 14C-ciclesonide 25 μM, previous study; cited from earlier work
[5] = directly after inhalation of CIC 800 μg via MDI; cited from earlier work
[6] = after inhalation of 1 mg BDP via MDI (Aerobec)
[7] = after inhalation of 1600 μg BUD via Nebuhaler

Share of BDP-related material in tissue ([1]; 24 h): 26.6%
Share of BDP-related material in medium ([1]; 24 h): 8.4%
Amount of fatty acid esters formed, fold less than for BUD and des-CIC ([1]; lung tissue, esters formed by BMP (and/or BOH)): approximately 10 fold
SMILES: CCC(=O)O[C@]1(C(=O)CO)[C@@H](C)C[C@H]2[C@@H]3CCC4=CC(=O)C=C[C@]4(C)[C@@]3(Cl)[C@@H](O)C[C@@]21C [BMP, beclomethasone-17-monopropionate]
Median concentration in bronchial tissue [2, 6]: 4.4 ng/g tissue
Median concentration in serum [2, 6]: 1.2 ng/mL

Share of BDP-related material in tissue ([1]; 24 h): 64.9%
Share of BDP-related material in medium ([1]; 24 h): 91.6%
SMILES: C[C@H]1C[C@H]2[C@@H]3CCC4=CC(=O)C=C[C@]4(C)[C@@]3(Cl)[C@@H](O)C[C@]2(C)[C@@]1(O)C(=O)CO [BOH, beclomethasone]

Total amount in human lung tissue slices: Parent compound ([1]; 2 h, 25 μM): 2.19 ± 0.83 nmol/vial
Total amount in human lung tissue slices: Parent compound ([1]; 6 h, 25 μM): 0.72 ± 0.46 nmol/vial
SMILES: CCC(=O)OCC(=O)[C@@]1(OC(=O)CC)[C@@H](C)C[C@H]2[C@@H]3CCC4=CC(=O)C=C[C@]4(C)[C@@]3(Cl)[C@@H](O)C[C@@]21C [Beclomethasone dipropionate, beclomethasone dipropionate]

SMILES: CCCC1O[C@@H]2C[C@H]3[C@@H]4CCC5=CC(=O)C=C[C@]5(C)[C@H]4[C@@H](O)C[C@]3(C)[C@]2(C(=O)CO)O1 (some centres unmarked) [Budesonide, budesonide]
Metabolites detected in incubation medium ([1]; 25 μM, listed as BUD): no metabolites were detected
Relative drug amount in human lung tissue slices: Parent compound ([1]; 2 h, 25 μM): 72.2 ± 10.8 % of total UV areas
Total amount in human lung tissue slices: Parent compound ([1]; 2 h, 25 μM): 7.32 ± 0.99 nmol/vial
Relative drug amount in human lung tissue slices: Parent compound ([1]; 6 h, 25 μM): 64.9 ± 12.0 % of total UV areas
Total amount in human lung tissue slices: Parent compound ([1]; 6 h, 25 μM): 8.41 ± 2.15 nmol/vial
Relative drug amount in human lung tissue slices: Parent compound ([1]; 24 h, 25 μM): 53.6 ± 11.5 % of total UV areas
Total amount in human lung tissue slices: Parent compound ([1]; 24 h, 25 μM): 9.04 ± 1.14 nmol/vial
Affinity to the glucocorticoid receptor (glucocorticoid receptor): slightly lower
Mean concentration in blood plasma [2, 7]: 0.63 nmol/kg
Mean concentration in lung tissue obtained from resections [2, 7]: 5.5 nmol/kg

Relative drug amount in medium: Parent compound ([1]; 2 h): 94.9 ± 1.3 % of total UV areas
Relative drug amount in medium: Parent compound ([1]; 6 h): 83.2 ± 5.5 % of total UV areas
Relative drug amount in medium: Parent compound ([1]; 24 h): 37.4 ± 7.8 % of total UV areas
Relative drug amount in medium: Parent compound ([1]; 24 h, listed as CIC): 37 % of total UV areas
Relative drug amount in human lung tissue slices: Parent compound ([1]; 2 h, 25 μM): 85.0 ± 3.4 % of total UV areas
Total amount in human lung tissue slices: Parent compound ([1]; 2 h, 25 μM): 6.46 ± 0.92 nmol/vial
Relative drug amount in human lung tissue slices: Parent compound ([1]; 6 h, 25 μM): 73.5 ± 4.7 % of total UV areas
Total amount in human lung tissue slices: Parent compound ([1]; 6 h, 25 μM): 8.86 ± 1.68 nmol/vial
Relative drug amount in human lung tissue slices: Parent compound ([1]; 24 h, 25 μM): 40.0 ± 7.6 % of total UV areas
Total amount in human lung tissue slices: Parent compound ([1]; 24 h, 25 μM): 9.53 ± 1.70 nmol/vial
SMILES: CC(C)C(=O)OCC(=O)[C@@]12O[C@H](C3CCCCC3)O[C@@H]1C[C@H]1[C@@H]3CCC4=CC(=O)C=C[C@]4(C)[C@H]3[C@@H](O)C[C@@]12C [Ciclesonide, ciclesonide]
logD [3]: 6.1

SMILES: CCCCCCCCC=CCCCCCCCC(=O)OCC(=O)C12OC(C3CCCCC3)OC1CC1C3CCC4=CC(=O)C=CC4(C)C3C(O)CC12C (centres unmarked) [Des-CIC-oleate]
Lipophilicity relative to BUD-oleate ([3]; from logD 13.0 vs 12.3): about 5 fold

Metabolites detected in incubation medium ([1]; 25 μM, listed as FP): no metabolites were detected
Metabolites detected in tissue extract / metabolic stability ([1]; tissue extract, 2, 6 and 24 h, 25 μM): no metabolites were detected
Relative drug amount in human lung tissue slices: Parent compound ([1]; 2 h, 25 μM): 100 ± 0.0 % of total UV areas
Total amount in human lung tissue slices: Parent compound ([1]; 2 h, 25 μM): 8.42 ± 1.26 nmol/vial
Relative drug amount in human lung tissue slices: Parent compound ([1]; 6 h, 25 μM): 100 ± 0.0 % of total UV areas
Total amount in human lung tissue slices: Parent compound ([1]; 6 h, 25 μM): 8.62 ± 2.20 nmol/vial
Relative drug amount in human lung tissue slices: Parent compound ([1]; 24 h, 25 μM): 100 ± 0.0 % of total UV areas
Total amount in human lung tissue slices: Parent compound ([1]; 24 h, 25 μM): 9.51 ± 2.22 nmol/vial
SMILES: CCC(=O)O[C@]1(C(=O)SCF)[C@H](C)C[C@H]2[C@@H]3C[C@H](F)C4=CC(=O)C=C[C@]4(C)[C@@]3(F)[C@@H](O)C[C@@]21C [Fluticasone propionate, fluticasone propionate]
Affinity to the glucocorticoid receptor (glucocorticoid receptor): higher
Concentration in central lung tissue ([2]; after single inhalation of FP, in a few patients): more than 20 ng/g
Mean concentration in serum ([2]; after single inhalation of FP, same time as lung tissue sample): approximately 0.02 ng/mL
logD ([3]; pH 7.4): 3.7

SMILES: C[C@]12C=CC(=O)C=C1CC[C@@H]1[C@@H]2[C@@H](O)C[C@@]2(C)[C@H]1C[C@H]1O[C@@H](C3CCCCC3)O[C@]12C(=O)CO [des-CIC, desisobutyryl-ciclesonide]
Relative percentage of des-CIC at the end of the incubation period ([1]; incubation of CIC 25 μM, 24 h, present study): 32%
Relative percentage of des-CIC at the end of the incubation period [4]: 29%
Affinity to the glucocorticoid receptor (glucocorticoid receptor): high affinity
Amount detected in mouth rinsing solutions [5]: Only traces

From PMC2071910 (Respiratory Research, 2007)
